Experimental data taken from US20110275703A1, “SUBSTITUTED SPIROKETAL DERIVATIVES AND USE THEREOF AS THERAPEUTIC DRUG FOR DIABETES” (CHUGAI SEIYAKU KABUSHIKI KAISHA, priority 2007, published 2011).

How the values were obtained:
human SGLT1 = molecular target: T1, human SGLT1 (Homo sapiens, UniProt P13866); experiment: Inhibitory activity against methyl-α-D-glucopyranoside uptake, CHO cells stably expressing human SGLT1; assay type: cell-based; details: Table 2-2; read-out: hSGLT1 IC50 value
T1 construct: expressed in transfected cells; host or cells: CHO-K1
T1 sequence (P13866 1-664): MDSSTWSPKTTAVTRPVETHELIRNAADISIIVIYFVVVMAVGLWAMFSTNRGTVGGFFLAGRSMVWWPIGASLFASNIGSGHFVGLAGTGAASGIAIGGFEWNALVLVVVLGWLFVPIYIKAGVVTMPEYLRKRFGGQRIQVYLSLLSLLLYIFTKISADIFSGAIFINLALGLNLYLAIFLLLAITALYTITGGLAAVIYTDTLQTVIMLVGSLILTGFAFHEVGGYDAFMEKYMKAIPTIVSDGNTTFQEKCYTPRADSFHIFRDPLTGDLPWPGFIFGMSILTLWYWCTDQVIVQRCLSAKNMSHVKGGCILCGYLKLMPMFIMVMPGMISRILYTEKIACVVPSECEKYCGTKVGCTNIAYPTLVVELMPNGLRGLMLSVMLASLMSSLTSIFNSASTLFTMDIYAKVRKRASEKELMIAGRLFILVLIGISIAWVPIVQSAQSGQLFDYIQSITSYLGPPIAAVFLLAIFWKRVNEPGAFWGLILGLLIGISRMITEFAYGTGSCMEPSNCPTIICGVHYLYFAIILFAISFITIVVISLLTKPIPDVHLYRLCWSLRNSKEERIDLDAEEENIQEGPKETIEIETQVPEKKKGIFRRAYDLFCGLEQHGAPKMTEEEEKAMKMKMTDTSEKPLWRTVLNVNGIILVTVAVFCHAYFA
Excerpt: Evaluation of inhibitory activity against methyl-α-D-glucopyranoside uptake of human Na^+-glucose cotransporter (SGLT1 and SGLT2)
1) Construction of Human SGLT1 Expression Vector
Human SGLT1 cDNA was amplified by PCR with a cDNA library derived from human small intestine (Clontech) as a template, synthetic DNA primers and KOD+ DNA Polymerase (Toyobo Co., Ltd., Japan). The amplified cDNA was inserted into pcRII-Topo vector by using a Topo TA Cloning Dual Promoter kit (Invitrogen). E. coli competent cells (Invitrogen, TOP10) were transformed with the plasmid vector, cultured in LB medium containing ampicillin (50 mg/L) to grow ampicillin-resistant clones. The plasmid vector containing human SGLT1 cDNA was purified from the clone in a standard manner (see Maniatis et al., Molecular Cloning). Human SGLT1 cDNA added restriction enzyme recognition sites (Eco RI at 5′-end, Hind III at 3′-end) was amplified by PCR with the plasmid vector as a template, synthetic DNA primers containing an additional restriction enzyme recognition site, and KOD+ DNA Polymerase. This amplified cDNA was digested with Eco RI and Hind III and ligated into expression vector pcDNA3.1(−) (Invitrogen) digested with Eco RI and Hind III by a Rapid DNA Ligation kit (Roche Diagonostics). E. coli competent cells (Invitrogen, DH5α) were transformed with the ligated expression vector and grown in ampicillin-containing LB medium. Human SGLT1 expression vector was purified from the ampicillin-resistant clone in a standard manner.
3) Establishment of Cell Lines Stably Expressing Human SGLT1 or Human SGLT2
The human SGLT1 expression vector or the human SGLT2 expression vector was digested with the restriction enzyme Pvu I and transfected into CHO-Kl cells with FuGENE (Roche Diagonostics). After the transfection, the cells were cultured at 37° C. in the presence of 5% CO2 for about 3 weeks in DMEM medium (Gibco) containing penicillin (50 U/mL, SIGMA), streptomycin (50 mg/L, SIGMA), geneticin (200 mg/L, Nacalai Tesque, Inc., Japan) and 20% fetal bovine serum to obtain geneticin-resistant clones. Among these clones, clones stably expressing human SGLT1 or human SGLT2 were selected by the evaluating the sodium-dependent uptake activity of sugar (methyl-α-D-glucopyranoside).
4) Evaluation of Inhibitory Activity Against methyl-α-D-glucopyranoside uptake
Cell lines stably expressing human SGLT1 or human SGLT2 CHO were seeded in 96-well culture plates at a density of 30000 to 40000 cells/well and cultured for 4 to 6 days. The medium in these plates was removed and replaced by 150 μL/well pretreatment buffer (i.e., a buffer containing 140 mM choline chloride, 2 mM potassium chloride, 1 mM calcium chloride, 1 mM magnesium chloride, 10 mM 2-[4-(2-hydroxyethyl)-1-piperazinyl]ethanesulfonic acid and tris(hydroxymethyl)aminomethane, pH 7.4), and the plates were incubated at 37° C. for 20 minutes. The pretreatment buffer in the plates was removed, replaced by 50 μL/well fresh pretreatment buffer, and the plates were incubated at 37° C. for 20 minutes. Methyl-α-D-(U—^14C)glucopyranoside (6.3 mL, Amersham Pharmacia Biotech, 200 mCi/L) was added to and mixed with 100 mL buffer (i.e., a buffer containing 140 mM sodium chloride, 2 mM potassium chloride, 1 mM calcium chloride, 1 mM magnesium chloride, 1 mM methyl-α-D-glucopyranoside, 10 mM [4-(2-hydroxyethyl)-1-piperazinyl]ethanesulfonic acid and tris(hydroxymethyl)aminomethane, pH 7.4), which was used as uptake buffer. Test compounds were dissolved into uptake buffer and these test compound solutions were used for evaluating inhibitory activity. Uptake buffer without a test compound was used as a control solution. Moreover, for use in measuring baseline uptake in the absence of sodium, sodium-free solution was prepared in the same manner to contain 140 mM choline chloride instead of sodium chloride. […]

db/db mice = experiment: Study for glucose lowering effect in db/db mouse; assay type: in vivo; details: oral, 0.3 mg/kg, relative to control group; for inhibition in vivo at 0.3 mg/kg: Mus musculus, 6 hours, Table 3-2, read-out: Percent reduction of blood glucose (%) 6 hours after administration; for Percent reduction of blood glucose (%) 24 hours after administration: Table 3-2
In short: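 Male db/db mice, 9–11 weeks old, were grouped (n=5) by body weight/blood glucose and dosed orally by gavage with compound in 0.5% CMC at 0.3 mg/10 mL or 3 mg/10 mL (10 mL/kg); controls got vehicle. Tail blood glucose was measured by hexokinase method before and serially after dosing, expressed as % reduction versus control.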

| SMILES | IC50 (human SGLT1) [µM] | inhibition in vivo at 0.3 mg/kg (db/db mice) [%] | Percent reduction of blood glucose (%) 24 hours after administration (db/db mice) [%] |
| --- | --- | --- | --- |
| CCOc1ccc(Cc2cc3c(cc2Cl)CO[C@]32O[C@H](CO)[C@@H](O)[C@H](O)[C@H]2O)cc1 [Example 5, (1S,3′R,4′S,5′S,6′R)-5-chloro-6-[(4-ethoxyphenyl)methyl]-3′,4′,5′,6′-tetrahydro-6′-(hydroxymethyl)-spiro[isobenzofuran-1(3H),2′-[2H]pyran]-3′,4′,5′-triol] | 0.425 | 52 | 25 |
| CCCc1ccc(Cc2cc3c(cc2Cl)CO[C@]32O[C@H](CO)[C@@H](O)[C@H](O)[C@H]2O)cc1 [Example 9, (1S,3′R,4′S,5′S,6′R)-5-chloro-3′,4′,5′,6′-tetrahydro-6′-(hydroxymethyl)-6-[(4-propylphenyl)methyl]-spiro[isobenzofuran-1(3H),2′-[2H]pyran]-3′,4′,5′-triol] | 1.36 | 48 | 28 |
| CC(C)c1ccc(Cc2cc3c(cc2Cl)CO[C@]32O[C@H](CO)[C@@H](O)[C@H](O)[C@H]2O)cc1 [Example 15, (1S,3′R,4′S,5′S,6′R)-5-chloro-3′,4′,5′,6′-tetrahydro-6′-(hydroxymethyl)-6-[(4-isopropylphenyl)methyl]-spiro[isobenzofuran-1(3H),2′-[2H]pyran]-3′,4′,5′-triol] | 1.01 | 50 | 27 |
| Cc1cc2c(cc1Cc1ccc(C(C)C)cc1)[C@]1(OC2)O[C@H](CO)[C@@H](O)[C@H](O)[C@H]1O [Example 21, (1S,3′R,4′S,5′S,6′R)-3′,4′,5′,6′-tetrahydro-6′-(hydroxymethyl)-6-[(4-isopropylphenyl)methyl]-5-methyl-spiro[isobenzofuran-1(3H),2′-[2H]pyran]-3′,4′,5′-triol] | 0.682 | 51 | 33 |

These reach a lower IC50 (human SGLT1). Values come first.

| IC50 (human SGLT1) [µM] | SMILES | inhibition in vivo at 0.3 mg/kg (db/db mice) [%] | Percent reduction of blood glucose (%) 24 hours after administration (db/db mice) [%] |
| --- | --- | --- | --- |
| 0.132 | CCc1ccc(Cc2cc3c(cc2C)CO[C@]32O[C@H](CO)[C@@H](O)[C@H](O)[C@H]2O)cc1 [Comparative Compound 1, 1,1-anhydro-1-C-[5-(4-ethylphenyl)methyl-2-(hydroxymethyl)-4-methylphenyl]-β-glucopyranose, reference compound] |  |  |
| 0.201 | CCc1ccc(Cc2cc3c(cc2Cl)CO[C@]32O[C@H](CO)[C@@H](O)[C@H](O)[C@H]2O)cc1 [Example 1, (1S,3′R,4′S,5′S,6′R)-5-chloro-6-[(4-ethylphenyl)methyl]-3′,4′,5′,6′-tetrahydro-6′-(hydroxymethyl)-spiro[isobenzofuran-1(3H),2′-[2H]pyran]-3′,4′,5′-triol] | 42 | 32 |
| 0.381 | OC[C@H]1O[C@]2(OCc3cc(Cl)c(Cc4ccc5ccccc5c4)cc32)[C@H](O)[C@@H](O)[C@@H]1O [Example 7, (1S,3′R,4′S,5′S,6′R)-5-chloro-3′,4′,5′,6′-tetrahydro-6′-(hydroxymethyl)-6-(2-naphthylmethyl)-spiro[isobenzofuran-1(3H),2′-[2H]pyran]-3′,4′,5′-triol] | 54 | 42 |
| 0.355 | OC[C@H]1O[C@]2(OCc3cc(Cl)c(Cc4ccc(CCF)cc4)cc32)[C@H](O)[C@@H](O)[C@@H]1O [Example 8, (1S,3′R,4′S,5′S,6′R)-5-chloro-6-[(4-(2-fluoroethyl)phenyl)methyl]-3′,4′,5′,6′-tetrahydro-6′-(hydroxymethyl)-spiro[isobenzofuran-1(3H),2′-[2H]pyran]-3′,4′,5′-triol] | 48 | 27 |
